According to patent EP4644383A1 (Jiangsu Yahong Meditech Co., Ltd., priority 2022, dated 2024):
Read-outs that look alike come from different tables or passages of the source.

Assays:
[1] = tested on: RT112-FGFR3-V555M cells; experiment: Inhibition of proliferation activity of RT112-FGFR3-V555M cells (CellTiter-Glo); type: cell-based; details: read-out: IC50 (nM) RT112-FGFR3-V555M
Protocol: The present experiment used CellTiter-Glo® Luminescent Cell Viability Assay (Promega: G7573) kit, which was a homogeneous cell viability detection method and determined the cell viability of cultured cells by quantifying ATP. • ① RT112-FGFR3-V555M cells were cultured in MEM complete medium (Gibco: 51200038) (10% FBS (Gibco: 10091-148)+1% Pen Strep (Gibco: 15140122)+1% NEAA (Gibco: 11140050)) under the condition of 37°C and 5% CO2. • (2) The cells in logarithmic growth phase were harvested and counted using a […]. The trypan blue exclusion method was used to detect cell viability to ensure the cell viability was above 90%. • ③ The cell density was adjusted using MEM complete medium, and then, the cells were seeded into a 96-well cell culture plate at 90 µL/well with a total of 5000 cells. • ④ The 96-well plate with the cells was placed under the condition of 37°C and 5% CO2 to be cultured for 24 hours. • ⑤ 24 hours later, a 10-fold drug solution was prepared starting from a maximum drug concentration of 10 µM and 4-fold serially diluted into10 concentrations. Then, 10 µL of each of the serially diluted compounds was transferred to the corresponding experimental wells of a 96-well cell plate, with two replicates for each drug concentration. • ⑥ The 96-well plate with the cells that had been treated with the drugs was placed under the condition of 37°C and 5% CO2 to be further cultured for 72 hours, and then analyzed by CTG. • ⑦ The CTG reagent was melted and the cell plate was equilibrated to room temperature for 30 minutes. • ⑧ 50 µL of the CTG solution was added to each well. • ⑨ The cell plate was shaken on an orbital shaker for 5 minutes to lyse the cells. • ⑩ The cell plate was placed at room temperature for 20 minutes to stabilize the luminescence signal. The luminescence values were read to collect the data. • ⑪ The data were analyzed using XLFit excel plugin version 5.5.0.5, and fitted with non-linear S-curve regression to obtain the dose-response curves and thus calculate the IC50 values. Y = Bottom + (Top-Bottom)/((1+(IC50/X))^(∧) HillSlope [formula]
"Top" refers to the maximum response, "Bottom" refers to the minimum response, and "HillSlope" refers to the slope of the curve.
"Max" represents the average value of the cell+DMSO control, and "Min" represents the average value of the medium control+DMSO.

[2] = biological target: T1, FGFR2 (Homo sapiens, UniProt P21802); experiment: FGFR2 kinase activity inhibition assay (LanthaScreen TR-FRET); type: biochemical
T1 construct: FGFR2's cytoplasmic domain [399-821 (terminal) amino acids]; purchased Carna 08-134
How it was run: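 GST-fused FGFR2 cytoplasmic domain (aa 399-821) was run as in the FGFR1 protocol: preincubated 10 min at 23 °C with compound (3-fold series from 1 µM) in 50 mM HEPES pH 7.5, 10 mM MgCl2, 4 mM DTT, 1% DMSO. A 2× mix of 28 nM fluorescein-poly GT/28 µM ATP then reacted 30 min. Tb-PY20/EDTA quench preceded the TR-FRET 520/495 read.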

[3] = FGFR2 kinase, TR-FRET, read-out: IC50 (nM) FGFR2
[4] = RT112-FGFR3-V555M cells, 72 hours, CTG

T1 sequence (P21802 399-821): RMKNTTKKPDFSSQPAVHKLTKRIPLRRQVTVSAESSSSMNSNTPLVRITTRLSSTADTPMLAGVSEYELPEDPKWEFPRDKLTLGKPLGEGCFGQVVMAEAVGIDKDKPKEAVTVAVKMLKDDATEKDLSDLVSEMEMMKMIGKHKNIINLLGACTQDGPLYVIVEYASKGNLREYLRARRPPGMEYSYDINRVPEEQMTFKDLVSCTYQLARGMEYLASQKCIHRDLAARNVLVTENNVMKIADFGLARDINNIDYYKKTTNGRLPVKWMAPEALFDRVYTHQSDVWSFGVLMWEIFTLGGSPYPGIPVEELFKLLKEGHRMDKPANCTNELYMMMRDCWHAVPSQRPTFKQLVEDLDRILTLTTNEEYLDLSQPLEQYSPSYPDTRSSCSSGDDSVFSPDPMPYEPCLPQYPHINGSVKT

| Compound | IC50 [2, 3] [nM] | IC50 ([1]; 72 h) [nM] | IC50 [2] [nM] | IC50 [1, 4] [nM] |
| --- | --- | --- | --- | --- |
| C[C@@H](Oc1ccc2[nH]nc(-c3ccc(S(C)(=N)=O)nc3)c2c1)c1c(Cl)cncc1Cl (stereo partly drawn) [Comparative Example 85, (5-(5-((R)-1-(3,5-dichloropyridin-4-yl)ethoxy)-1H-indazol-3-yl)pyridin-2-yl)(imino)(methyl)-sulfanone, reference compound] |  | 334 |  |  |
| C[C@@H](Oc1cc(F)c2[nH]nc(-c3cnn(CCN4CCOCC4)c3)c2c1)c1c(Cl)cncc1Cl [Example 12, (R)-4-(2-(4-(5-(1-(3,5-dichloropyridin-4-yl)ethoxy)-7-fluoro-1H-indazol-3-yl)-1H-pyrazol-1-yl)ethyl)morph oline] | 1 to 10 |  |  |  |
| C[C@@H](Oc1ccc2[nH]nc(-c3cnn(C)c3)c2n1)c1c(Cl)cncc1Cl [Example 29, (R)-5-(1-(3,5-dichloropyridin-4-yl)ethoxy)-3-(1-methyl-1H-pyrazol-4-yl)-1H-pyrazolo[4,3-b]pyridine] | < 1 |  |  |  |
| CC(Oc1ccc2[nH]nc(-c3cnn(C)c3)c2c1)c1cccc2ncccc12 (centres unmarked) [Example 88, 5-(1-((3-(1-methyl-1H-pyrazol-4-yl)-1H-indazol-5-yl)oxy)ethyl)quin oline] | 1 to 10 |  |  |  |
| Cc1ccc2ncccc2c1C(C)Oc1ccc2[nH]nc(-c3cnn(C)c3)c2c1 (centres unmarked) [Example 95, 6-methyl-5-(1-((3-(1-methyl-1H-pyrazol-4-yl)-1H-indazol-5-yl)oxy)ethyl)quinolinee] |  |  | 1 to 10 | 110 |
| CC(Oc1ccc2[nH]nc(-c3cnn(C)c3)c2c1)c1c(C(F)F)ccc2ncccc12 (centres unmarked) [Example 127, 6-(difluoromethyl)-5-(1-((3-(1-methyl-1H-pyrazol-4-yl)-1H-indazol-5-yl)oxy)ethyl)quinoline] | 1 to 10 |  |  | 118 |
| CC(Oc1ccc2[nH]nc(-c3cnn(C)c3)c2c1)c1c(CF)ccc2ncccc12 (centres unmarked) [Example 130, 6-(fluoromethyl)-5-(1-((3-(1-methyl-1H-pyrazol-4-yl)-1H-indazol-5-yl)oxy)ethyl)q uinoline] | 1 to 10 |  |  | 152 |
| Cc1cc2nccnc2c(C(C)Oc2ccc3[nH]nc(-c4cnn(C)c4)c3c2)n1 (centres unmarked) [Example 183, 7-methyl-5-(1-((3-(1-methyl-1H-pyrazol-4-yl)-1H-indazol-5-yl)oxy)ethyl)pyridino [3,4-b]pyrazine] | 1 to 10 |  |  | 10.4 |
| CC(Oc1cc2c(-c3cnn(C)c3)n[nH]c2cc1F)c1cc(Cl)cc2nccnc12 (centres unmarked) [Example 227, 7-chloro-5-(1-((6-fluoro-3-(1-methyl-1H-pyrazol-4-yl)-1H-indazol-5-yl)oxy)ethyl)qu inoxaline] |  |  |  | 128 |
| CC(Oc1ccc2[nH]nc(-c3cnn(C)c3)c2c1)c1nc(C(F)F)cc2nccnc12 (centres unmarked) [Example 236, 7-(difluoromethyl)-5-(1-((3-(1-methyl-1H-pyrazol-4-yl)-1H-indazol-5-yl)oxy)ethyl)pyridino[3,4-b]pyrazine] | 1 to 10 |  |  | 38.9 |
| [2H]C([2H])([2H])c1cc2nccnc2c(C(C)Oc2ccc3[nH]nc(-c4cnn(C)c4)c3c2)n1 (centres unmarked) [Example 241] |  |  | < 1 | 18.2 |

More lines, main results first:

| IC50 [2, 3] [nM] | Compound | IC50 ([1]; 72 h) [nM] | IC50 [2] [nM] | IC50 [1, 4] [nM] |
| --- | --- | --- | --- | --- |
| 1 to 10 | CC(Oc1ccc2[nH]nc(-c3cnn(C)c3)c2c1)c1cccc2nccnc12 (centres unmarked) [Example 92, 5-(1-((3-(1-methyl-1H-pyrazol-4-yl)-1H-indazol-5-yl)oxy)ethyl)quin oxaline] |  |  |  |
| 1 to 10 | CC(Oc1ccc2[nH]nc(-c3cnn(C)c3)c2c1)c1cc(Cl)cc2nccnc12 (centres unmarked) [Example 136, 7-chloro-5-(1-((3-(1-methyl-1H-pyrazol-4-yl)-1H-indazol-5-yl)oxy)ethyl)qu inoxaline] |  |  | 119 |
| 1 to 10 | COCC(=O)N1CC(n2cc(-c3n[nH]c4ccc(OC(C)c5cccc6nccnc56)cc34)cn2)C1 (centres unmarked) [Example 188, 2-methoxy-1-(3-(4-(5-(1-(quinoxalin-5-yl)ethoxy)-1H-indazol-3-yl)-1H-pyrazol-1-yl)azetidin-1-yl)ethan-1-one] |  |  | 70.1 |
| 1 to 10 | CC(Oc1ccc2[nH]nc(-c3cnn(C4CN(C(=O)C(C)(C)O)C4)c3)c2c1)c1cccc2nccnc12 (centres unmarked) [Example 190, 2-hydroxy-2-methyl-1-(3-(4-(5-(1-(quinoxalin-5-yl)ethoxy)-1H-indazol-3-yl)-1H-pyrazol-1-yl)azetidin-1-yl)propan-1-one] |  |  | 81.6 |
| 1 to 10 | CC(=O)N1CC(n2cc(-c3n[nH]c4ccc(OC(C)c5cccc6nccnc56)cc34)cn2)C1 (centres unmarked) [Example 218, 1-(3-(4-(5-(1-(quinoxalin-5-yl)ethoxy)-1H-indazol-3-yl)-1H-pyrazol-1-yl)azetidin-1-yl)ethan-1-one] |  |  | 64.7 |
